Measurements reported in patent US8093275B2, “Oxazolone and pyrrolidinone-substituted pryidine amides as P2X3 and P2X2/3 antagonists” (Roche Palo Alto LLC, priority 2009, dated 2012).

Columns and labels:
rat P2X3 receptor = target: T1, rat P2X3 receptor (Rattus norvegicus, UniProt P49654); experiment: P2X3 FLIPR (Fluorometric Imaging Plate Reader) assay; format: cell-based; conditions: CHO-K1 cells transfected with rat P2X3; agonist α,β-meATP 1 μM; FLIPR calcium fluorescence; read-out: pKi P2X3 (converted)
T1 construct: expressed in transfected cells; host or cells: CHO-K1
T1 sequence (P49654 1-397): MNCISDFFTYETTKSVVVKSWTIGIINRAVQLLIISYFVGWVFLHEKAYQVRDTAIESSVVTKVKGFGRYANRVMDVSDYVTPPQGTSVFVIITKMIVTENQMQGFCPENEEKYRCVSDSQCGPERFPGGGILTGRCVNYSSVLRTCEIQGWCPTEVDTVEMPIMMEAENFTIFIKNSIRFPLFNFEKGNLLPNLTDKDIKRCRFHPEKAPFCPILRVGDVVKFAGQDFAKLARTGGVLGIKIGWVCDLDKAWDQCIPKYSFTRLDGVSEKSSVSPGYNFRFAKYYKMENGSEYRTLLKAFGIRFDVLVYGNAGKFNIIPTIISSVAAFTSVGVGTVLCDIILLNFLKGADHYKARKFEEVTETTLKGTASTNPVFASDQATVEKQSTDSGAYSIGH
Protocol: (§1) CHO-K1 cells were transfected with cloned rat P2X3 or human P2X2/3 receptor subunits and passaged in flasks. 18-24 hours before the FLIPR experiment, cells were released from their flasks, centrifuged, and resuspended in nutrient medium at 2.5×10^5 cells/ml. The cells were aliquoted into black-walled 96-well plates at a density of 50,000 cells/well and incubated overnight in 5% CO2 at 37° C. On the day of the experiment, cells were washed in FLIPR buffer (calcium- and magnesium-free Hank's balanced salt solution, 10 mM HEPES, 2 mM CaCl2, 2.5 mM probenecid; FB). Each well received 100 μl FB and 100 μl of the fluorescent dye Fluo-3 AM [2 μM final conc.]. After a 1 hour dye loading incubation at 37° C., the cells were washed 4 times with FB, and a final 75 μl/well FB was left in each well.
(§2) Test compounds (dissolved in DMSO at 10 mM and serially diluted with FB) or vehicle were added to each well (25 μl of a 4× solution) and allowed to equilibrate for 20 minutes at room temperature. The plates were then placed in the FLIPR and a baseline fluorescence measurement (excitation at 488 nm and emission at 510-570 nm) was obtained for 10 seconds before a 100 μl/well agonist or vehicle addition. The agonist was a 2× solution of α,β-meATP producing a final concentration of 1 μM (P2X3) or 5 μM (P2X2/3). Fluorescence was measured for an additional 2 minutes at 1 second intervals after agonist addition. A final addition of ionomycin (5 μM, final concentration) was made to each well of the FLIPR test plate to establish cell viability and maximum fluorescence of dye-bound cytosolic calcium. Peak fluorescence in response to the addition of α,β-meATP (in the absence and presence of test compounds) was measured and inhibition curves generated using nonlinear regression. PPADS, a standard P2X antagonist, was used as a positive control.

human P2X2/3 receptor = target: T2, human P2X2/3 receptor (Homo sapiens, UniProt P56373+Q9UBL9); experiment: P2X2/3 FLIPR (Fluorometric Imaging Plate Reader) assay; format: cell-based; conditions: CHO-K1 cells transfected with human P2X2/3; agonist α,β-meATP 5 μM; FLIPR calcium fluorescence; read-out: pKi P2X2/3 (converted)
T2 construct: expressed in transfected cells; host or cells: CHO-K1
T2 sequence (Q9UBL9 1-471): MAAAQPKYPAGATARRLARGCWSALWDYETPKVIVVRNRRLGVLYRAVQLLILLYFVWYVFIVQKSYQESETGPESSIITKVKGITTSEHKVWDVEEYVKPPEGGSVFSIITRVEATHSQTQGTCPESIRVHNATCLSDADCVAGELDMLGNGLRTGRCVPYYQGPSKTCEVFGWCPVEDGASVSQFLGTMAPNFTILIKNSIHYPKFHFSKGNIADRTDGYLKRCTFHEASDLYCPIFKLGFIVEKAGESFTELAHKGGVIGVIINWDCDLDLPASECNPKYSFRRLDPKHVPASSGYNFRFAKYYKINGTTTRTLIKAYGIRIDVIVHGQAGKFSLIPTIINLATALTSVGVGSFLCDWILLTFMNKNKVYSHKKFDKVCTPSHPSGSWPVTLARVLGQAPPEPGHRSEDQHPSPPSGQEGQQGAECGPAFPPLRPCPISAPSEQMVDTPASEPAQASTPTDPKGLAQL
T2 sequence (P56373 1-397): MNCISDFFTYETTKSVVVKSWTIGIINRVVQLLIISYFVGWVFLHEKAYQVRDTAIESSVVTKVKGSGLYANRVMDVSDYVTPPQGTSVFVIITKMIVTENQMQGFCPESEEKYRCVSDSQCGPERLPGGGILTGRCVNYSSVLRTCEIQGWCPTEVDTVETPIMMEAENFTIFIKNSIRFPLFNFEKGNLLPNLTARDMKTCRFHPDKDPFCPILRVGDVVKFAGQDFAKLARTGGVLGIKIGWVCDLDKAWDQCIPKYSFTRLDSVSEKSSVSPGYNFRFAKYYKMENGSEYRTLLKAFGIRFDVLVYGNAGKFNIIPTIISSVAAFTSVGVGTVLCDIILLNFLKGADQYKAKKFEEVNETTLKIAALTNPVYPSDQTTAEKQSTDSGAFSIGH
Protocol: as §1, §2

Row | Ki (rat P2X3 receptor) | Ki (human P2X2/3 receptor) | Compound
1 | 7.94 nM | 28.8 nM | Cc1ccc(-c2cc(C(=O)NCc3cnc(C)cn3)cc(-n3c(=O)oc4ccccc43)c2)nc1 [Compound 1, N-(5-Methyl-pyrazin-2-ylmethyl)-3-(5-methyl-pyridin-2-yl)-5-(2-oxo-benzooxazol-3-yl)-benzamide]
2 | 30.2 nM | 2040 nM | Cc1ccc(-c2cc(C(=O)NCc3cnc(C)cn3)cc(N3C(=O)CCC3C)c2)nc1 (stereo not drawn) [Compound 28, 3-(2-Methyl-5-oxo-pyrrolidin-1-yl)-N-(5-methyl-pyrazin-2-ylmethyl)-5-(5-methyl-pyridin-2-yl)-benzamide]
3 | 3.55 nM | 26.3 nM | Cc1ccc(-c2cc(C(=O)NC(C)c3cnccn3)cc(N3C(=O)OC[C@H]3C(C)C)c2)nc1 (stereo partly drawn) [Compound 10, 3-((R)-4-Isopropyl-2-oxo-oxazolidin-3-yl)-5-(5-methyl-pyridin-2-yl)-N-(1-pyrazin-2-yl-ethyl)-benzamide]
4 | 3.16 nM | 35.5 nM | Cc1ccc(-c2cc(C(=O)NCc3cnc(C)cn3)cc(-n3c(=O)[nH]c4cncnc43)c2)nc1 [Compound 30, N-(5-Methyl-pyrazin-2-ylmethyl)-3-(5-methyl-pyridin-2-yl)-5-(8-oxo-7,8-dihydro-purin-9-yl)-benzamide]
5 | 8.91 nM | 89.1 nM | Cc1ccc(-c2cc(C(=O)NCc3cnc(C)cn3)cc(N3C(=O)Cc4ccccc43)c2)nc1 [Compound 5, N-(5-Methyl-pyrazin-2-ylmethyl)-3-(5-methyl-pyridin-2-yl)-5-(2-oxo-2,3-dihydro-indol-1-yl)-benzamide]
6 | 2.24 nM | 195 nM | Cc1ccc(-c2cc(C(=O)N[C@@H](C)CO)cc(N3C(=O)OC[C@H]3C(C)C)c2)nc1 [Compound 9, N-((S)-2-Hydroxy-1-methyl-ethyl)-3-((R)-4-isopropyl-2-oxo-oxazolidin-3-yl)-5-(5-methyl-pyridin-2-yl)-benzamide]
7 | 7.59 nM | 339 nM | CCC1COC(=O)N1c1cc(C(=O)NC(C)c2cnccn2)cc(-c2ccc(C)cn2)c1 (stereo not drawn) [Compound 18, 3-(4-Ethyl-2-oxo-oxazolidin-3-yl)-5-(5-methyl-pyridin-2-yl)-N-(1-pyrazin-2-yl-ethyl)-benzamide]
8 | 5.62 nM | 85.1 nM | Cc1ccc(-c2cc(C(=O)NCc3ccc(C)nn3)cc(N3C(=O)OCC3(C)C)c2)nc1 [Compound 31, 3-(4,4-Dimethyl-2-oxo-oxazolidin-3-yl)-N-(6-methyl-pyridazin-3-ylmethyl)-5-(5-methyl-pyridin-2-yl)-benzamide]
9 | 12.3 nM | 38 nM | Cc1ccc(-c2cc(C(=O)NCc3cnc(C)cn3)cc(N3C(=O)OC[C@H]3C(C)C)c2)cc1 [Compound 40, 5-((R)-4-Isopropyl-2-oxo-oxazolidin-3-yl)-4′-methyl-biphenyl-3-carboxylic acid (5-methyl-pyrazin-2-ylmethyl)-amide]
10 | 13.2 nM | 38 nM | Cc1ccc(-c2cc(C(=O)NCc3cnc(C)cn3)cc(N3C(=O)OC[C@H]3C(C)C)c2)c(F)c1 [Compound 48, 2′-Fluoro-5-((R)-4-isopropyl-2-oxo-oxazolidin-3-yl)-4′-methyl-biphenyl-3-carboxylic acid (5-methyl-pyrazin-2-ylmethyl)-amide]

Continued, compound first:

Row | Compound | Ki (rat P2X3 receptor) | Ki (human P2X2/3 receptor)
11 | Cc1ccc(-c2cc(C(=O)NCc3cncnc3)cc(-n3c(=O)oc4ccccc43)c2)nc1 [Compound 12, 3-(5-Methyl-pyridin-2-yl)-5-(2-oxo-benzooxazol-3-yl)-N-pyrimidin-5-ylmethyl-benzamide] | 6.03 nM | 141 nM
12 | Cc1ccc(-c2cc(C(=O)N[C@@H](C)CO)cc(N3C(=O)OC[C@H]3C(C)C)c2)cc1 [Compound 38, 5-((R)-4-Isopropyl-2-oxo-oxazolidin-3-yl)-4′-methyl-biphenyl-3-carboxylic acid ((S)-2-hydroxy-1-methyl-ethyl)-amide] | 2.19 nM | 79.4 nM
13 | CCC1COC(=O)N1c1cc(C(=O)NCc2cnc(C)cn2)cc(-c2ccc(C)cn2)c1 (stereo not drawn) [Compound 19, 3-(4-Ethyl-2-oxo-oxazolidin-3-yl)-N-(5-methyl-pyrazin-2-ylmethyl)-5-(5-methyl-pyridin-2-yl)-benzamide] | 4.27 nM | 66.1 nM
14 | Cc1ccc(-c2cc(C(=O)NC3CC3)cc(N3C(=O)OC[C@H]3C(C)C)c2)cc1 [Compound 41, 5-((R)-4-Isopropyl-2-oxo-oxazolidin-3-yl)-4′-methyl-biphenyl-3-carboxylic acid cyclopropylamide] | 3.98 nM | 83.2 nM
15 | Cc1ccc(-c2cc(C(=O)NCc3cnc(C)cn3)cc(-n3c(=O)oc4ccccc43)c2)cc1 [Compound 51, 4′-Methyl-5-(2-oxo-benzooxazol-3-yl)-biphenyl-3-carboxylic acid (5-methyl-pyrazin-2-ylmethyl)-amide] | 11 nM | 31.6 nM
16 | Cc1ccc(-c2cc(C(=O)NCc3cnc(C)cn3)cc(N3C(=O)OCC34CC4)c2)nc1 [Compound 29, N-(5-Methyl-pyrazin-2-ylmethyl)-3-(5-methyl-pyridin-2-yl)-5-(5-oxo-6-oxa-4-aza-spiro[2.4]hept-4-yl)-benzamide] | 4.37 nM | 129 nM
17 | Cc1ccc(-c2cc(C(=O)N[C@@H](C)CO)cc(N3C(=O)OC[C@H]3C(C)C)c2)c(F)c1 [Compound 46, 2′-Fluoro-5-((R)-4-isopropyl-2-oxo-oxazolidin-3-yl)-4′-methyl-biphenyl-3-carboxylic acid ((S)-2-hydroxy-1-methyl-ethyl)-amide] | 2.45 nM | 93.3 nM
18 | Cc1ccc(-c2cc(C(=O)NC(C)c3cnccn3)cc(N3C(=O)OC[C@H]3C(C)C)c2)cc1 (stereo partly drawn) [Compound 39, 5-((R)-4-Isopropyl-2-oxo-oxazolidin-3-yl)-4′-methyl-biphenyl-3-carboxylic acid (1-pyrazin-2-yl-ethyl)-amide] | 9.33 nM | 38 nM
19 | CCC1COC(=O)N1c1cc(C(=O)N[C@@H](C)CO)cc(-c2ccc(C)cn2)c1 (stereo partly drawn) [Compound 17, 3-(4-Ethyl-2-oxo-oxazolidin-3-yl)-N-((S)-2-hydroxy-1-methyl-ethyl)-5-(5-methyl-pyridin-2-yl)-benzamide] | 10.5 nM | 4900 nM
20 | Cc1ccc(-c2cc(C(=O)NC(C)c3cnccn3)cc(N3C(=O)CCC3C)c2)nc1 (stereo not drawn) [Compound 27, 3-(2-Methyl-5-oxo-pyrrolidin-1-yl)-5-(5-methyl-pyridin-2-yl)-N-(1-pyrazin-2-yl-ethyl)-benzamide] | 38.9 nM | 7760 nM
21 | Cc1ccc(-c2cc(C(=O)NCc3cccnn3)cc(-n3c(=O)oc4ccccc43)c2)nc1 [Compound 14, 3-(5-Methyl-pyridin-2-yl)-5-(2-oxo-benzooxazol-3-yl)-N-pyridazin-3-ylmethyl-benzamide] | 8.51 nM | 263 nM
